Results published in ChEMBL document CHEMBL1135857, “Exploration of peptidyl hydrazones as water-soluble calpain inhibitors” (Bioorg Med Chem Lett, 2002).
Values after ≈ are worked out from the molar mass of the structure shown.

What was measured:
[1] = Water solubility was determined at pH 4; format: ADME
[2] = Water solubility was determined at pH 6; format: ADME
[3] = Water solubility was determined at pH 7; format: ADME
[4] = biological target: T1, Calpain-1 catalytic subunit (Sus scrofa, UniProt P35750); assay: Tested for inhibitory activity against porcine erythrocyte Mu-calpain
T1 sequence (P35750 whole entry): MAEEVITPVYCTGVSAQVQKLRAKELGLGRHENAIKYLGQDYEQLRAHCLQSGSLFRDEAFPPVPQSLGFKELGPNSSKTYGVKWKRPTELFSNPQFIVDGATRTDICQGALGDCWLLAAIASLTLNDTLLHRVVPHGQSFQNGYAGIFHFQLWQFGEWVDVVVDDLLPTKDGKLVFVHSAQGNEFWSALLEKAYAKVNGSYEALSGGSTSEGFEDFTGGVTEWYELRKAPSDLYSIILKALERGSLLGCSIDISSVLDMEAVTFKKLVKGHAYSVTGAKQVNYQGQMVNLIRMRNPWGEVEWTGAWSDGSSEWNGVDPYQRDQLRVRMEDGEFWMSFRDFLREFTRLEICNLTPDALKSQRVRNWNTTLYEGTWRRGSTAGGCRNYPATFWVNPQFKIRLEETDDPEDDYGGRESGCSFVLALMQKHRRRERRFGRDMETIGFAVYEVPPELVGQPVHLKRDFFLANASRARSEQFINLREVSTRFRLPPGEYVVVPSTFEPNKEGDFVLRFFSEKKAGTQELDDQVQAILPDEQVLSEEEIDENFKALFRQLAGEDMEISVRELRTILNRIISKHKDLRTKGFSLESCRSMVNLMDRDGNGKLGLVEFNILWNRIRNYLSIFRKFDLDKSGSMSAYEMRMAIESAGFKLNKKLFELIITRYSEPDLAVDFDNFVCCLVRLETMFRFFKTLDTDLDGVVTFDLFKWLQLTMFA

[5] = Water solubility was determined at pH 5; format: ADME

Row | SMILES | solubility [1] [µg/mL] | solubility [2] [µg/mL] | solubility [3] [µg/mL] | IC50 [4] [nM] | solubility [5] [µg/mL]
1 | CC(C)C[C@@H](C=O)NC(=O)[C@@H](NS(=O)(=O)c1ccc(F)cc1)C(C)C | 102 (≈ 274 µM) | 100 (≈ 268 µM) | 105 (≈ 282 µM) | 35 | 
2 | CC(C)[C@H](NS(=O)(=O)c1ccc(F)cc1)C(=O)NC/C=N/N1CCOCC1 | 1260 (≈ 3150 µM) | 692 (≈ 1730 µM) | 667 (≈ 1670 µM) | 6200 | 840 (≈ 2100 µM)
3 | CC(C)C[C@@H](/C=N/NCCO)NC(=O)[C@@H](NS(=O)(=O)c1ccc(F)cc1)C(C)C | 228 (≈ 530 µM) | 226 (≈ 525 µM) | 293 (≈ 681 µM) | 190 | 234 (≈ 543 µM)
4 | CC(C)C[C@@H](/C=N/NC(N)=O)NC(=O)[C@@H](NS(=O)(=O)c1ccc(F)cc1)C(C)C | 433 (≈ 1010 µM) |  |  | 680 | 
5 | CC(C)[C@H](NS(=O)(=O)c1ccc(F)cc1)C(=O)NC/C=N/NC(=O)CN(C)C | > 5000 | > 5000 | > 5000 | > 10000 | > 5000
6 | CC(C)C[C@@H](/C=N/N1CCOCC1)NC(=O)[C@@H](NS(=O)(=O)c1ccc(F)cc1)C(C)C | 67.3 (≈ 147 µM) | 60.8 (≈ 133 µM) | 58.2 (≈ 127 µM) | 790 | 63.3 (≈ 139 µM)
